In the supplement of paper PMC13380429:

Legend:
Settings in all cases: 72 h
[1] = tested on: Calu-3; test: relative viability EC50 (midpoint between 100% and the lowest measured viability); higher = less toxic
[2] = tested on: Vero E6; test: as above
[3] = tested on: HepG2; test: as above
[4] = tested on: Caco-2; test: as above
[5] = tested on: U2OS; test: as above
[6] = tested on: Calu-3; test: drug sensitivity score (DSS) for viability; higher = more toxic; extreme values may be limits of the assay
[7] = tested on: Vero E6; test: as above
[8] = tested on: HepG2; test: as above
[9] = tested on: Caco-2; test: as above
[10] = tested on: U2OS; test: as above
[11] = tested on: Calu-3; test: cell viability relative to DMSO; higher = less toxic
[12] = tested on: Vero E6; test: as above
[13] = tested on: HepG2; test: as above
[14] = tested on: Caco-2; test: as above
[15] = tested on: U2OS; test: as above

| Compound | relative viability EC50 [1] [µM] | relative viability EC50 [2] [µM] | relative viability EC50 [3] [µM] | relative viability EC50 [4] [µM] | relative viability EC50 [5] [µM] | drug sensitivity score [6] | drug sensitivity score [7] | drug sensitivity score [8] | drug sensitivity score [9] | drug sensitivity score [10] | cell viability ([11]; 1 nM) [%] | cell viability ([11]; 10 nM) [%] | cell viability ([11]; 100 nM) [%] | cell viability ([11]; 1000 nM) [%] | cell viability ([11]; 10000 nM) [%] | cell viability ([12]; 1 nM) [%] | cell viability ([12]; 10 nM) [%] | cell viability ([12]; 100 nM) [%] | cell viability ([12]; 1000 nM) [%] | cell viability ([12]; 10000 nM) [%] | cell viability ([13]; 1 nM) [%] | cell viability ([13]; 10 nM) [%] | cell viability ([13]; 100 nM) [%] | cell viability ([13]; 1000 nM) [%] | cell viability ([13]; 10000 nM) [%] | cell viability ([14]; 1 nM) [%] | cell viability ([14]; 10 nM) [%] | cell viability ([14]; 100 nM) [%] | cell viability ([14]; 1000 nM) [%] | cell viability ([14]; 10000 nM) [%] | cell viability ([15]; 1 nM) [%] | cell viability ([15]; 10 nM) [%] | cell viability ([15]; 100 nM) [%] | cell viability ([15]; 1000 nM) [%] | cell viability ([15]; 10000 nM) [%] |
| --- | --- | --- | --- | --- | --- | --- | --- | --- | --- | --- | --- | --- | --- | --- | --- | --- | --- | --- | --- | --- | --- | --- | --- | --- | --- | --- | --- | --- | --- | --- | --- | --- | --- | --- | --- |
| Cc1cccc(-c2n[nH]cc2-c2ccc3ncccc3n2)n1 [repsox] | > 10 | > 10 | > 10 | > 10 | > 10 | 0.7 | 1 | 0 | 0 | 0 | 95.1 | 94.4 | 98.6 | 101 | 78.4 | 102 | 97.8 | 103 | 89.5 | 84.8 | 100 | 104 | 98.8 | 95.9 | 91 | 94 | 98.2 | 95 | 105 | 95 | 96 | 101 | 92.4 | 93.4 | 94.8 |
| CCOC(=O)C1=CCCC[C@H]1S(=O)(=O)Nc1ccc(F)cc1Cl [resatorvid] | > 10 | > 10 | > 10 | > 10 | > 10 | 0 | 0 | 0 | 0 | 0 | 94.8 | 104 | 92.9 | 111 | 96.2 | 95.2 | 103 | 97.6 | 88.4 | 98.4 | 104 | 95.6 | 109 | 110 | 98.6 | 98.4 | 98.9 | 93.6 | 99 | 96.1 | 100 | 97.7 | 96.9 | 99.6 | 94.7 |
| CCOCc1nc2c(N)nc3ccccc3c2n1CC(C)(C)O [resiquimod] | > 10 | > 10 | > 10 | > 10 | > 10 | 0 | 0 | 0 | 0 | 0 | 102 | 101 | 94.7 | 101 | 92 | 108 | 101 | 100 | 99.9 | 102 | 103 | 104 | 103 | 101 | 94.5 | 97.7 | 96.7 | 97.3 | 90.4 | 91.3 | 99.7 | 103 | 101 | 100 | 97.8 |
| Cc1cc2nc3c(=O)[nH]c(=O)nc-3n(C[C@H](O)[C@H](O)[C@H](O)COP(=O)(O)O)c2cc1C [riboflavin-5-phosphate-sodium] | > 10 | > 10 | > 10 | > 10 | > 10 | 0 | 0 | 0 | 0 | 0 | 91.4 | 102 | 92.7 | 104 | 99.8 | 101 | 102 | 97.2 | 95.7 | 97.2 | 97.8 | 104 | 101 | 98 | 108 | 97.8 | 104 | 103 | 100 | 90.3 | 102 | 97.9 | 94.4 | 98.2 | 91.9 |
| CS(=O)(=O)c1ccc(C2=C(c3ccccc3)C(=O)OC2)cc1 [rofecoxib] | > 10 | > 10 | > 10 | > 10 | > 10 | 0 | 0 | 0 | 0 | 0 | 99.1 | 100 | 98 | 101 | 102 | 93.6 | 105 | 88.4 | 95.3 | 102 | 95.7 | 104 | 95.2 | 103 | 101 | 96.4 | 93.8 | 100 | 91.1 | 92.7 | 101 | 98.9 | 100 | 98.8 | 99.5 |
| O=C1CCC2CCC(=O)N12 [rolziracetam] | > 10 | > 10 | > 10 | > 10 | > 10 | 0 | 0 | 0 | 0 | 0 | 91 | 87 | 99.1 | 103 | 96.3 | 94.9 | 105 | 97.8 | 102 | 97.5 | 114 | 104 | 96.1 | 108 | 116 | 79.1 | 112 | 82.8 | 98.6 | 89.1 | 98 | 100 | 101 | 96.7 | 102 |
| C1CCN2C[C@@H]3C[C@@H](CN4CCCC[C@@H]34)[C@H]2C1 [sparteine-sulfate] | > 10 | > 10 | > 10 | > 10 | > 10 | 0 | 0 | 0 | 2.6 | 0 | 114 | 104 | 108 | 116 | 86.7 | 97.4 | 98.7 | 82.1 | 93.6 | 105 | 94.9 | 101 | 102 | 89 | 102 | 84.7 | 87.4 | 81.4 | 78.5 | 105 | 105 | 99.7 | 104 | 97.6 | 100 |
| O=C(CCBr)N1CC[N+]2(CC1)CC[N+]1(CCN(C(=O)CCBr)CC1)CC2 [spirobromin] | > 10 | > 10 | > 10 | > 10 | > 10 | 0 | 0 | 0 | 0 | 0 | 110 | 100 | 94.7 | 110 | 100 | 91.2 | 101 | 96.4 | 91.5 | 106 | 91.7 | 91.5 | 96.6 | 106 | 96.4 | 103 | 87 | 94.2 | 109 | 108 | 96.4 | 95.2 | 97.3 | 99.4 | 97.7 |
| Cc1cn([C@H]2C=C[C@@H](CO)O2)c(=O)[nH]c1=O [stavudine] | > 10 | > 10 | > 10 | > 10 | > 10 | 0 | 0 | 0 | 0 | 0 | 94.1 | 102 | 92.9 | 101 | 108 | 92.7 | 94.5 | 95.9 | 104 | 105 | 88.4 | 91.5 | 93.8 | 98.4 | 95 | 92.7 | 92.4 | 82.9 | 113 | 88.6 | 102 | 99.7 | 103 | 96.7 | 106 |
| O=C(O)CCC(=O)O [succinic-acid] | > 10 | > 10 | > 10 | > 10 | > 10 | 0 | 0 | 0 | 0 | 0 | 97.2 | 105 | 98.5 | 101 | 97.5 | 104 | 96.6 | 95.5 | 98.4 | 104 | 110 | 100 | 110 | 101 | 99.8 | 92.2 | 89.7 | 86 | 94.8 | 93.5 | 95.5 | 102 | 97.7 | 102 | 101 |
| CN[C@H](C(=O)N[C@H](C(=O)N(C)[C@H](/C=C(\C)C(=O)O)C(C)C)C(C)(C)C)C(C)(C)c1ccccc1 [taltobulin] | 0.0037 | 0.0044 | 0.0012 | 0.0011 | 0.0021 | 24.3 | 33.4 | 35 | 29.8 | 36.3 | 82.8 | 58.4 | 46.7 | 39.6 | 38.8 | 88.5 | 39.6 | 25.2 | 17.9 | 18.1 | 73.5 | 28.9 | 28.6 | 34.8 | 33.1 | 68.3 | 45.6 | 34.3 | 35 | 35.9 | 73.8 | 31.8 | 17.3 | 18.5 | 17.7 |
| N=C1CCCN1Cc1[nH]c(=O)[nH]c(=O)c1Cl [tipiracil] | > 10 | > 10 | > 10 | > 10 | > 10 | 0 | 0 | 0 | 0 | 0 | 94.2 | 102 | 89.4 | 97.4 | 101 | 97.6 | 95.9 | 94.9 | 92.6 | 104 | 100 | 89.6 | 96.5 | 101 | 98.7 | 96.7 | 93.4 | 93.2 | 98.1 | 98.6 | 97.4 | 99 | 93.8 | 97.5 | 100 |
| CCC[C@@]1(CCc2ccccc2)CC(O)=C([C@H](CC)c2cccc(NS(=O)(=O)c3ccc(C(F)(F)F)cn3)c2)C(=O)O1 [tipranavir] | > 10 | > 10 | > 10 | > 10 | > 10 | 0 | 0 | 0 | 0 | 0 | 107 | 98.1 | 102 | 109 | 118 | 104 | 102 | 100 | 102 | 105 | 94.8 | 103 | 93.6 | 103 | 93.9 | 98.5 | 97.1 | 93.6 | 103 | 93.1 | 100 | 99.4 | 100 | 104 | 101 |
| c1ccc(CC2=NCCN2)cc1 [tolazoline] | > 10 | > 10 | > 10 | > 10 | > 10 | 0 | 0 | 0 | 0 | 0 | 103 | 103 | 87.3 | 98.4 | 114 | 108 | 111 | 104 | 106 | 98.6 | 97.3 | 102 | 101 | 108 | 99.9 | 103 | 93.1 | 97.5 | 95 | 98 | 99.9 | 97.9 | 102 | 101 | 101 |
